Test results: patent US20210323950A1, “HERBICIDALLY ACTIVE BICYCLIC BENZOYLPYRAZOLES” (Bayer Aktiengesellschaft, priority 2018, published 2021)

System: Cyperus esculentus (CYPES)
Experiment: Pre-emergence herbicidal action against CYPES
Type: in vivo
Settings: 320 g/ha, scored visually after about 3 weeks vs untreated controls
Text: CYPES: Cyperus esculentus 1. Pre-Emergence Herbicidal Action and Crop Plant Compatibility Seeds of monocotyledonous and dicotyledonous weed plants and crop plants are placed in plastic or organic planting pots and covered with soil. The compounds of the invention, formulated in the form of wettable powders (WP) or as emulsion concentrates (EC), are then applied onto the surface of the covering soil as aqueous suspension or emulsion with addition of 0.5% additive at a water application rate of […] (converted). After the treatment, the pots are placed in a greenhouse and kept under good growth conditions for the trial plants. After about 3 weeks, the effect of the preparations is scored visually in comparison with untreated controls as percentages. The tables below show the herbicidal activity of numerous compounds according to the invention against important harmful plants. For example, 100% activity=the plants have died, 0% activity=like control plants.

## Cn1ncc(C(=O)c2ccc(C(F)(F)F)c3c2OC[S+]3[O-])c1O (stereo not shown) [Example 1-28]
  Pre-emergence action against CYPES: 90%
